The test system of assay [1] is PI3K-dependent phosphorylation of PKB at Serin 473 in PC3 cells. Description: Cellular PI3K assay (P-S473-PKB Luminex assay in PC3 cells). Format: cell-based. To be noted: Homo sapiens, PC-3, 0.5 h, read-out: IC50 (cell). The gist of the method: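 PC3 cells were exposed for 30 min under serum-free conditions to 7 concentrations of compound, then lysed. Lysates were captured overnight at 4°C on anti-total-PKB Luminex beads and detected with P-S473-PKB antibody plus PE-labelled secondary.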

In the next assay the target is PI3Kalpha (Homo sapiens, UniProt P42336). Description: Biochemical PI3Kalpha assay (neomycin SPA, lipid phosphorylation). To be noted: human recombinant GST-PI3K. The gist of the method:
(§1)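 Recombinant PI3K incubated with lipid substrate and radioactive ATP for 120 min at room temperature with gentle stirring, then stopped with neomycin-coated PVT-SPA beads, ATP 60 mM and EDTA 6.2 mM in PBS. After 60 min bead binding and centrifugation, radioactive Ptdlns(3)P counted by scintillation.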

Another assay addresses DNA-PK protein complex (Homo sapiens, UniProt P78527). Briefly: Biochemical DNA-PK assay (FlashPlate). The method, boiled down:
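Streptavidin-coated FlashPlate radiometric kinase assay, stopped with 200 mM EDTA, then wells washed with 0.9% NaCl and bound radioactivity counted. Blank (non-specific reaction) defined with a proprietary kinase inhibitor at 10 μM.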

The target of a further assay is T1, mTOR (Homo sapiens, UniProt P42345).
T1 construct: purchased Millipore 14-770
Briefly: Biochemical mTOR assay (Millipore mTOR assay kit). Here is the method: The biochemical mTOR assay was carried out by the method described in the Millipore mTOR assay kit (catalogue number 14-770).

Assay [2] deals with recombinant PI3Kalpha (shortened form of the catalytic subunit) (Homo sapiens, UniProt P42336). Description: BIACORE PI3K binding assay (SPR). To be noted: 25° C. The gist of the method:
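Contact time was 180 s and dissociation 240 s, in HEPES pH 7.40 buffer with 2% DMSO. Solvent-corrected, double-referenced data were fitted to a 1:1 model with mass transport.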
In general terms: SPR reads the build-up and loss of mass on a sensor chip optically.

Another assay concerns the target PI3Kbeta (Homo sapiens, UniProt P42338). Briefly: Biochemical PI3Kbeta assay (neomycin SPA, lipid phosphorylation). To be noted: human recombinant GST-PI3K. The method, boiled down: as §1
The mark [3] stands for this setting: PC3 cells, 30 min, serum-free, P-S473-PKB.

Structures are written as SMILES. Read-outs that look alike come from different tables or passages of the source.

Sequence of PI3Kbeta (P42338 whole entry): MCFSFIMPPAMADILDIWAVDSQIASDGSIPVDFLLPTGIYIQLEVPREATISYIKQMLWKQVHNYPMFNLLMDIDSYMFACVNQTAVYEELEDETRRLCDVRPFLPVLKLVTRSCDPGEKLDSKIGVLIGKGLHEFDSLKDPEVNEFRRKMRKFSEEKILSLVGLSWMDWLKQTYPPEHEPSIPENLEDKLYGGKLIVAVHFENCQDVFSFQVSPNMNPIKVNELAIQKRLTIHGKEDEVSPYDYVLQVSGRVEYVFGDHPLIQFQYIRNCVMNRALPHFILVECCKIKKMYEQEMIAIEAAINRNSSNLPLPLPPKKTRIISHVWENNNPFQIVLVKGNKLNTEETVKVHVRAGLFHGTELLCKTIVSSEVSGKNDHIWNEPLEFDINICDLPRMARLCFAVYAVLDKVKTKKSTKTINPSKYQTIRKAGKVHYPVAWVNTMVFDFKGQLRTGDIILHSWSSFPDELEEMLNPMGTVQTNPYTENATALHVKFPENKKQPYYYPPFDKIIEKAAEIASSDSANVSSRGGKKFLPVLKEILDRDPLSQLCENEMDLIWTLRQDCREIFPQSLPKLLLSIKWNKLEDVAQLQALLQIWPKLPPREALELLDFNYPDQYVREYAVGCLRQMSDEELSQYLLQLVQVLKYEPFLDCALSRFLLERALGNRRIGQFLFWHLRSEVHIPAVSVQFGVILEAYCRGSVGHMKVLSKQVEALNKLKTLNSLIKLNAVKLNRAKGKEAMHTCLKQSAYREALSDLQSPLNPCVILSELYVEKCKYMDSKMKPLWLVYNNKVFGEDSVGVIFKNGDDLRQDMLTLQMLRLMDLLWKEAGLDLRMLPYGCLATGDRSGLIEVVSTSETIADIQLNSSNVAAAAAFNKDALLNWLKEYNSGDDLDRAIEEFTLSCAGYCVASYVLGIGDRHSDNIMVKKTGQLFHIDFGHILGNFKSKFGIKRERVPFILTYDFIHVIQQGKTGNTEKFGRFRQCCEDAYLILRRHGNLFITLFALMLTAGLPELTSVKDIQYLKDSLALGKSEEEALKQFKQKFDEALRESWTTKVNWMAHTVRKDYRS
Sequence of PI3Kbeta (P27986 whole entry partner): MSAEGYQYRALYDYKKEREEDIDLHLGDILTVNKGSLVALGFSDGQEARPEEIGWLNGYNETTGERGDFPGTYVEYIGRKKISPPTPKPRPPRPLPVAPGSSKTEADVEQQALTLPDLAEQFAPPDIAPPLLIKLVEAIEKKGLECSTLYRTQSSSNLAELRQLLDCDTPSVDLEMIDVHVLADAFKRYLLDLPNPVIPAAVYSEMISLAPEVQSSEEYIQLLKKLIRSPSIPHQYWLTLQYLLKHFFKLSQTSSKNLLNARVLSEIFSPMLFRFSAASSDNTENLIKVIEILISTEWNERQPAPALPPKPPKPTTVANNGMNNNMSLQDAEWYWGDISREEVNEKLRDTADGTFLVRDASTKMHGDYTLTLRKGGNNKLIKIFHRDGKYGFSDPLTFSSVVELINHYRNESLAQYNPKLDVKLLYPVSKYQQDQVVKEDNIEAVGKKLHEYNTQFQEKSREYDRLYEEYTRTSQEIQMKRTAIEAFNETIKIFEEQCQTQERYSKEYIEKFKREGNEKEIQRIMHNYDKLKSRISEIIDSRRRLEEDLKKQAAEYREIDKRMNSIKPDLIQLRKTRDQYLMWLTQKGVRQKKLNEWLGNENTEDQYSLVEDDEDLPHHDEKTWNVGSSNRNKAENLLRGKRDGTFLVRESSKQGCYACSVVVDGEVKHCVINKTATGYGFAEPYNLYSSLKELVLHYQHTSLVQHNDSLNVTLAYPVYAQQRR
Sequence of recombinant PI3Kalpha (shortened form of the catalytic subunit) (P42336 151-1068 limits assumed): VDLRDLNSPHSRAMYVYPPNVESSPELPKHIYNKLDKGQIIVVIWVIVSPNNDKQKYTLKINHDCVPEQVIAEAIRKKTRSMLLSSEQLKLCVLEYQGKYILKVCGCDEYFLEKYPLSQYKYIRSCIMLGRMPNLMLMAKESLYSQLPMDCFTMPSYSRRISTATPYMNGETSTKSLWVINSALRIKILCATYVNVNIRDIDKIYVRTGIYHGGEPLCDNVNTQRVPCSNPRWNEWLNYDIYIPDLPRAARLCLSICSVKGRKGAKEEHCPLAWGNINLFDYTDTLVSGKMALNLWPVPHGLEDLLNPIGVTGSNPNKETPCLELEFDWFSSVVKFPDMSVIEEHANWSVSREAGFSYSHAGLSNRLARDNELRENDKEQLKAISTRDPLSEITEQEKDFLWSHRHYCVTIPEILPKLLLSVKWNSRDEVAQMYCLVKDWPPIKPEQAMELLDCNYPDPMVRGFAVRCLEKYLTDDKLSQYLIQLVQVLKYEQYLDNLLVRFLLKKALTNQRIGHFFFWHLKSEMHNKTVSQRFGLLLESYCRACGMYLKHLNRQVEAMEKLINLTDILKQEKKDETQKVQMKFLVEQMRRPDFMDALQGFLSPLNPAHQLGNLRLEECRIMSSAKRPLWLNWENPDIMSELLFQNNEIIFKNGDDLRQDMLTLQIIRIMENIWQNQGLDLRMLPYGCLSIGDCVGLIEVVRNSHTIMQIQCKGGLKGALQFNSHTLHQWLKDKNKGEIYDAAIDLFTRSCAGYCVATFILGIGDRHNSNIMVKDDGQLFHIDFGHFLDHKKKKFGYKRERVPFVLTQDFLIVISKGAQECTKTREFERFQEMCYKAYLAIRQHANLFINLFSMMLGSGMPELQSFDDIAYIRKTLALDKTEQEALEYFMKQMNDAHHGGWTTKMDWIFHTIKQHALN
Sequence of PI3Kalpha (P42336 whole entry): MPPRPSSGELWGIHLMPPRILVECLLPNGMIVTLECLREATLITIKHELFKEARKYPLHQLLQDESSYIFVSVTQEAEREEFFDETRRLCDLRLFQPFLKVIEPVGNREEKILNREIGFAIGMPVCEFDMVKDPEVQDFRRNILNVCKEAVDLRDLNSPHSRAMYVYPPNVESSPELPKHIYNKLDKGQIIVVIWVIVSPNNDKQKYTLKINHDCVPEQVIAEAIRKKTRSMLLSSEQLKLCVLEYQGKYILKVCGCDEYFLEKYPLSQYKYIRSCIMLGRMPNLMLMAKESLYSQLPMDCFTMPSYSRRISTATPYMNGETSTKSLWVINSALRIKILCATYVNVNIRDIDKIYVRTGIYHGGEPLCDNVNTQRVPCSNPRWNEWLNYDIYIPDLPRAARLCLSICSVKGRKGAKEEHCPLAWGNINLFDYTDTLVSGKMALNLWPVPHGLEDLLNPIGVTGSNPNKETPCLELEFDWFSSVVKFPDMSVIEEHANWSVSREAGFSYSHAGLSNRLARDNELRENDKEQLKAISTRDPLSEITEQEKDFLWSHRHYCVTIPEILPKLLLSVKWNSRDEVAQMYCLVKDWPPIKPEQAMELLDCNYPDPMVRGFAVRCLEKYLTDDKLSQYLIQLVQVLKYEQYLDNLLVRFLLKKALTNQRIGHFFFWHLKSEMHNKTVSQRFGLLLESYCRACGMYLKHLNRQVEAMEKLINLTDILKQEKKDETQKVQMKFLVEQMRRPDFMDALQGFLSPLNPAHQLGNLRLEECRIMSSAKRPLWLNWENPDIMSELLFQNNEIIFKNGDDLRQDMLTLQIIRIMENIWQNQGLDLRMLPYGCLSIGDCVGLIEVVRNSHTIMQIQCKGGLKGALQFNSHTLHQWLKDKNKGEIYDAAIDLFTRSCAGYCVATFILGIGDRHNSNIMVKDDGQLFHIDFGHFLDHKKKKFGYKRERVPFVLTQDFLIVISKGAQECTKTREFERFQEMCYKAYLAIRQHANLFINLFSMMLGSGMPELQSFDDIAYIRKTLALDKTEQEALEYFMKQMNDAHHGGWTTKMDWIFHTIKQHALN
Sequence of PI3Kalpha (P27986 whole entry partner): as the sequence (P27986 whole entry partner) above
T1 sequence (P42345 1362-2549 limits assumed): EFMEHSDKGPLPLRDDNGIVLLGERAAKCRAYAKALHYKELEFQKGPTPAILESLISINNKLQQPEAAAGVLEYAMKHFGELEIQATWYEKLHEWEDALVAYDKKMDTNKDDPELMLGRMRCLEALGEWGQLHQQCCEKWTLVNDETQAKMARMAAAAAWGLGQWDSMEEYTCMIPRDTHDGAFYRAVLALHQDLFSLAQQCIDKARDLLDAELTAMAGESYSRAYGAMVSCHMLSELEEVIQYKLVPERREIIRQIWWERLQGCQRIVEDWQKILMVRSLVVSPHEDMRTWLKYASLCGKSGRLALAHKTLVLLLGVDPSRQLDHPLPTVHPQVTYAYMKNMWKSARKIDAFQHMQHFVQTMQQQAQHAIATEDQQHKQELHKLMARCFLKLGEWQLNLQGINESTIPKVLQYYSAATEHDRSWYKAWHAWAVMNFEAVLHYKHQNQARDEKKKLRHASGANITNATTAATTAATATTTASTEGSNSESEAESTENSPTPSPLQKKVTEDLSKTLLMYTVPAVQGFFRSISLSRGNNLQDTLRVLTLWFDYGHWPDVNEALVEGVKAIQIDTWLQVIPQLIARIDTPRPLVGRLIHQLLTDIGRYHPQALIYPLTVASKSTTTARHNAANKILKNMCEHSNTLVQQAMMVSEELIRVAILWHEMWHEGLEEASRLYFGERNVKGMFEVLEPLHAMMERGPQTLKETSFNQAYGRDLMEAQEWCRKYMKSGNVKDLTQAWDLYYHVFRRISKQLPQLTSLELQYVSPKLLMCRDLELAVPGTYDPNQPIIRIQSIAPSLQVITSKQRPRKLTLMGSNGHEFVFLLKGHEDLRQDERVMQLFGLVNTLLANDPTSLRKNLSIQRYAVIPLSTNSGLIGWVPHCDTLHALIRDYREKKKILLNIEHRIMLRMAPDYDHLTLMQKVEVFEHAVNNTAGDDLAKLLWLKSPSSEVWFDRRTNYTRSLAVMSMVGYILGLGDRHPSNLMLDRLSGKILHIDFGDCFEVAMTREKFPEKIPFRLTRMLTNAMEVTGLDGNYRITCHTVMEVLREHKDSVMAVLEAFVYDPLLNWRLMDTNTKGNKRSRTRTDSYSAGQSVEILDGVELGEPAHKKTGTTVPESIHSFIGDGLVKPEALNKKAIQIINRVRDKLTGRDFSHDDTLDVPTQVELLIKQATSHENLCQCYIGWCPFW

One may read the IC50 as the point on the concentration scale where inhibition reaches its midpoint. As a reminder, the Kd is the concentration at which binding is half-saturated. With `COc1cccc(-c2ccnc(-c3cn(C)c(=O)n3-c3ccc(C(C)(C)C#N)cc3)c2)c1` [Example A3, 2-(4-{5-[4-(3-Methoxyphenyl)pyridin-2-yl]-3-methyl-2-oxo-2,3-dihydroimidazol-1-yl}phenyl)-2-methylpropionitrile], the 50% inhibitory concentration (IC50) in assay [1] (setting [3]) is more than 10000 nM; on PI3Kalpha, 100 to 10000 nM; against DNA-PK protein complex it was 0.1 to 100 nM; at mTOR it was more than 10000 nM; on PI3Kbeta, more than 10000 nM. Moreover, the Kd in assay [2] was in the range of 100 to 10000 nM.
For `COc1ccc(-c2ccnc(-c3cn(C)c(=O)n3-c3ccc(N4CCNCC4)c(C(F)(F)F)c3)c2)cn1` [Example A20, 4-(6-Methoxy-[3,4′]bipyridinyl-2′-yl)-1-methyl-3-(4-piperazin-1-yl-3-trifluoro-methylphenyl)-1,3-dihydroimidazol-2-one], the IC50 in assay [1] (setting [3]) was 100 to 10000 nM; on PI3Kalpha, 100 to 10000 nM; against DNA-PK protein complex, 0.1 to 100 nM; against mTOR, 100 to 10000 nM; on PI3Kbeta, 100 to 10000 nM. Also, the Kd in assay [2] was 100 to 10000 nM.
In the case of `Cn1cc(-c2cc(-c3cnc4ccccc4c3)ccn2)n(-c2ccc(C(C)(C)C(=O)O)cc2)c1=O` [Example A22, 2-Methyl-2-{4-[3-methyl-2-oxo-5-(4-quinolin-3-ylpyridin-2-yl)-2,3-dihydroimidazol-1-yl]phenyl}propionic acid], the half-inhibitory concentration (IC50) in assay [1] (setting [3]) was more than 10000 nM; on PI3Kalpha, 100 to 10000 nM; against DNA-PK protein complex it was 100 to 10000 nM; on mTOR it was 100 to 10000 nM; on PI3Kbeta, more than 10000 nM. For the same compound, the Kd in assay [2] lay within 100 to 10000 nM.
In the case of `Cn1cc(-c2cc(-c3ccnc4[nH]ccc34)ccn2)n(-c2ccc(C(C)(C)C#N)cc2)c1=O` [Example A23, 2-Methyl-2-(4-{3-methyl-2-oxo-5-[4-(1H-pyrrolo[2,3-b]pyridin-4-yl)pyridin-2-yl]-2,3-dihydroimidazol-1-yl}phenyl)propionitrile], the IC50 is 100 to 10000 nM in assay [1] (setting [3]); 100 to 10000 nM on PI3Kalpha; 0.1 to 100 nM on DNA-PK protein complex; 100 to 10000 nM at mTOR; more than 10000 nM at PI3Kbeta. In addition, the Kd in assay [2] was 100 to 10000 nM.
Take `CCn1cc(-c2cc(-c3cnc4[nH]ccc4c3)ccn2)n(-c2ccc(C(C)(C)C#N)cc2)c1=O` [Example A24, 2-(4-{3-Ethyl-2-oxo-5-[4-(1H-pyrrolo[2,3-b]pyridin-5-yl)pyridin-2-yl]-2,3-dihydro-imidazol-1-yl}phenyl)-2-methylpropionitrile]: the 50% inhibitory concentration (IC50) in assay [1] (setting [3]) lay in the range of 100 to 10000 nM; at PI3Kalpha it was 100 to 10000 nM; at DNA-PK protein complex, 0.1 to 100 nM; against mTOR, 0.1 to 100 nM; at PI3Kbeta it was 100 to 10000 nM. Besides, the Kd in assay [2] is 0.1 to 100 nM.
Take `Cn1cc(-c2cc(-c3cnc4[nH]c(C(F)(F)F)cc4c3)ccn2)n(-c2ccc(C(C)(C)C#N)cc2)c1=O` [Example A27, 2-Methyl-2-(4-{3-methyl-2-oxo-5-[4-(2-trifluoromethyl-1H-pyrrolo[2,3-b]pyridin-5-yl)pyridin-2-yl]-2,3-dihydroimidazol-1-yl}phenyl)propionitrile]: the IC50 in assay [1] (setting [3]) is 100 to 10000 nM; on PI3Kalpha, 100 to 10000 nM; against DNA-PK protein complex, 0.1 to 100 nM; at mTOR, 0.1 to 100 nM; on PI3Kbeta it was more than 10000 nM. Besides, in assay [2], the dissociation constant (Kd) lay in the range of 100 to 10000 nM.
With `Cn1cc(-c2cc(-c3cnc4[nH]ncc4c3)ccn2)n(-c2ccc(N3CCNCC3)c(C(F)(F)F)c2)c1=O` [Example A46, 1-Methyl-3-(4-piperazin-1-yl-3-trifluoromethylphenyl)-4-[4-(1H-pyrazolo[3,4-b]-pyridin-5-yl)pyridin-2-yl]-1,3-dihydroimidazol-2-one], the 50% inhibitory concentration (IC50) was 100 to 10000 nM in assay [1] (setting [3]); 0.1 to 100 nM at PI3Kalpha; 0.1 to 100 nM at DNA-PK protein complex; 100 to 10000 nM against mTOR; 100 to 10000 nM at PI3Kbeta. In assay [2], the Kd was 0.1 to 100 nM.
Take `CN1CCN(c2ccc(-n3c(-c4cc(-c5cnc6[nH]ccc6c5)ccn4)cn(C)c3=O)cc2)CC1` [Example A50, 1-Methyl-3-[4-(4-methylpiperazin-1-yl)phenyl]-4-[4-(1H-pyrrolo[2,3-b]pyridin-5-yl)pyridin-2-yl]-1,3-dihydroimidazol-2-one]: the IC50 in assay [1] (setting [3]) lay in the range of 100 to 10000 nM; on PI3Kalpha it was 100 to 10000 nM; on DNA-PK protein complex, 0.1 to 100 nM; against mTOR it was 100 to 10000 nM; on PI3Kbeta it was 100 to 10000 nM. In assay [2], the Kd is 0.1 to 100 nM.
Regarding `Cn1cc(-c2cc(-c3ccc(N)cc3)ccn2)n(-c2ccc(N3CCNCC3)c(C(F)(F)F)c2)c1=O` [Example A60, 4-[4-(4-Aminophenyl)pyridin-2-yl]-1-methyl-3-(4-piperazin-1-yl-3-trifluoromethyl-phenyl)-1,3-dihydroimidazol-2-one], the half-inhibitory concentration (IC50) in assay [1] (setting [3]) is 100 to 10000 nM; on PI3Kalpha, 100 to 10000 nM; against DNA-PK protein complex, 0.1 to 100 nM; at mTOR it was more than 10000 nM; on PI3Kbeta it was more than 10000 nM. Moreover, in assay [2], the dissociation constant (Kd) lay within 100 to 10000 nM.
For `Cn1cc(-c2cc(-c3cnc4[nH]ncc4c3)ccn2)n(-c2cccc(C#N)c2)c1=O` [Example A63, 3-{3-Methyl-2-oxo-5-[4-(1H-pyrazolo[3,4-b]pyridin-5-yl)pyridin-2-yl]-2,3-dihydro-imidazol-1-yl}benzonitrile], the concentration for half-maximal inhibition (IC50) fell in the range of 100 to 10000 nM in assay [1] (setting [3]); 0.1 to 100 nM at PI3Kalpha; 0.1 to 100 nM at DNA-PK protein complex; 0.1 to 100 nM on mTOR; 100 to 10000 nM at PI3Kbeta. The dissociation constant Kd in assay [2] was in the range of 0.1 to 100 nM.
`CC(=O)N1CCN(c2ccc(-n3c(-c4cc(-c5cnc6[nH]ccc6c5)ccn4)cn(C)c3=O)cc2C(F)(F)F)CC1` [Example A72, 3-[4-(4-Acetylpiperazin-1-yl)-3-trifluoromethylphenyl]-1-methyl-4-[4-(1H-pyrrolo[2,3-b]pyridin-5-yl)pyridin-2-yl]-1,3-dihydroimidazol-2-one]: the concentration for half-maximal inhibition (IC50) in assay [1] (setting [3]) fell in the range of 0.1 to 100 nM; on PI3Kalpha it was 100 to 10000 nM; against DNA-PK protein complex it was 0.1 to 100 nM; at mTOR, 100 to 10000 nM; on PI3Kbeta, 100 to 10000 nM. For the same compound, the Kd in assay [2] is 0.1 to 100 nM.
On to `COc1cccc(-n2c(-c3cc(-c4cnc5[nH]ccc5c4)ccn3)cn(C)c2=O)c1` [Example A73, 3-(3-Methoxyphenyl)-1-methyl-4-[4-(1H-pyrrolo[2,3-b]pyridin-5-yl)pyridin-2-yl]-1,3-dihydroimidazol-2-one], for which the half-maximal inhibitory concentration (IC50) in assay [1] (setting [3]) was 100 to 10000 nM; at PI3Kalpha it was 100 to 10000 nM; at DNA-PK protein complex, 0.1 to 100 nM; against mTOR, 0.1 to 100 nM; on PI3Kbeta it was 100 to 10000 nM. In addition, in assay [2], the dissociation constant (Kd) was in the range of 0.1 to 100 nM.
`CCN1CCN(c2ccc(-n3c(-c4cc(-c5cnc6[nH]ccc6c5)ccn4)cn(C)c3=O)cc2C(F)(F)F)CC1` [Example A77, 3-[4-(4-Ethylpiperazin-1-yl)-3-trifluoromethylphenyl]-1-methyl-4-[4-(1H-pyrrolo[2,3-b]pyridin-5-yl)pyridin-2-yl]-1,3-dihydroimidazol-2-one]: the IC50 in assay [1] (setting [3]) is 0.1 to 100 nM; at PI3Kalpha it was 100 to 10000 nM; at DNA-PK protein complex, 0.1 to 100 nM; on mTOR, more than 10000 nM; at PI3Kbeta, 100 to 10000 nM.
Consider `Cc1cccc(-n2c(-c3cc(-c4cnc5[nH]ccc5c4)ccn3)cn(C)c2=O)c1` [Example A79, 1-Methyl-4-[4-(1H-pyrrolo[2,3-b]pyridin-5-yl)pyridin-2-yl]-3-m-tolyl-1,3-dihydro-imidazol-2-one], for which the IC50 in assay [1] (setting [3]) lay within 100 to 10000 nM; at PI3Kalpha it was 100 to 10000 nM; at DNA-PK protein complex, 0.1 to 100 nM; at mTOR, 100 to 10000 nM; on PI3Kbeta, 100 to 10000 nM.
For `CC(C)c1cccc(-n2c(-c3cc(-c4cnc5[nH]ccc5c4)ccn3)cn(C)c2=O)c1` [Example A80, 3-(3-Isopropylphenyl)-1-methyl-4-[4-(1H-pyrrolo[2,3-b]pyridin-5-yl)pyridin-2-yl]-1,3-dihydroimidazol-2-one], the IC50 is 100 to 10000 nM in assay [1] (setting [3]); 100 to 10000 nM at PI3Kalpha; 0.1 to 100 nM against DNA-PK protein complex; more than 10000 nM on mTOR; 100 to 10000 nM at PI3Kbeta.
With `Cc1cc2cc(-c3ccnc(-c4cn(C)c(=O)n4-c4ccc(C(C)(C)C#N)cc4)c3)cnc2[nH]1` [Example A85, 2-Methyl-2-(4-{3-methyl-5-[4-(2-methyl-1H-pyrrolo[2,3-b]pyridin-5-yl)pyridin-2-yl]-2-oxo-2,3-dihydroimidazol-1-yl}phenyl)propionitrile], the 50% inhibitory concentration (IC50) was 100 to 10000 nM in assay [1]; 100 to 10000 nM at PI3Kalpha; 0.1 to 100 nM against DNA-PK protein complex; 100 to 10000 nM on mTOR; 100 to 10000 nM at PI3Kbeta. Besides, in assay [2], the Kd lay within 0.1 to 100 nM.
Consider `CN1CCN(c2ccc(-n3c(-c4cc(-c5cnc6[nH]c(C(C)(C)C)cc6c5)ccn4)cn(C)c3=O)cc2C(F)(F)F)CC1` [Example A86, 4-[4-(2-tert-Butyl-1H-pyrrolo[2,3-b]pyridin-5-yl)pyridin-2-yl]-1-methyl-3-[4-(4-methylpiperazin-1-yl)-3-trifluoromethylphenyl]-1,3-dihydroimidazol-2-one], for which the IC50 in assay [1] (setting [3]) is 100 to 10000 nM; on PI3Kalpha it was 100 to 10000 nM; against DNA-PK protein complex it was 0.1 to 100 nM; against mTOR, 100 to 10000 nM; on PI3Kbeta it was 100 to 10000 nM. Besides, the Kd in assay [2] was 100 to 10000 nM.

These data come from patent US8802866B2, “Pyridinylimidazolone derivatives for the inhibition of PI3 kinases” (Merck Patent GmbH, priority 2009, dated 2014).
